PMC9025941, “Influence of the Type of Amino Acid on the Permeability and Properties of Ibuprofenates of Isopropyl Amino Acid Esters” (International Journal of Molecular Sciences, 2022)
“And” between values parts separate entries of the source, which are not always exact repeats. Equal values may be shown once. Read-outs that look alike come from different tables or passages of the source. Marks after values point to notes of the source that are not given here.

How the values were obtained:
[1] = In vitro skin permeation, Franz diffusion cells; settings: for Q%24 h, the percentage of the applied dose permeated after 24 h / Cumulative Permeation Mass / LT, lag time: n = 3; for Q%24 h, the percentage of the applied dose permeated after 24 h / Cumulative Permeation Mass: 24 h; for EF, enhancement factor: relative to IBU; for JSS, steady-state flux: saturated solution in PBS pH 7.4, n = 3
[2] = n-octanol-water partition coefficient, shake flask method; settings: for Log P (n-octanol-water partition coefficient): shake flask, 25 °C
[3] = 37 °C, cited from earlier work
[4] = design: method as in PMID 35516534; settings: determined log P range; cited from earlier work
[5] = Thermal stability (TG/DTG): decomposition onset and maximum mass-loss rate temperature
Procedure: In Figure 5, the thermal stability of ibuprofen and amino acid isopropyl ester ibuprofenates was determined and compared. All TG, DTG, and c-DTA curves are in the Supplementary Materials (Figures S87–S100). The decomposition onset temperature (Tonset) and the temperature of the maximum rate of mass loss (Tmax) were determined.

[6] = Solubility in organic solvents by modified Vogel's method; settings: 25 °C
[7] = Solubility (saturation concentration) in deionised water and PBS pH 7.4, HPLC; settings: for Solubility in Phosphate Buffer pH = 7.4: PBS pH 7.4, 32 °C; for Solubility in Water: 25 °C
[8] = 24 h penetration, n = 3
[9] = pH 7.4
[10] = cited from earlier work; for Solubility in Phosphate Buffer pH = 7.4: PBS pH 7.4, 32 °C; for Solubility in Water: 25 °C
[11] = shake flask; cited from earlier work
[12] = 25 °C; cited from earlier work
[13] = saturated solution in PBS pH 7.4, mass of compound
[14] = saturated solution in PBS pH 7.4, mass of ibuprofen

For `CC(C)Cc1ccc(C(C)C(=O)O)cc1` (racemic) [IBU, (RS)-2-(4-(2-methylpropyl)phenyl)propanoic acid, reference compound], the “Q%24 h, the percentage of the applied dose permeated after 24 h” value (“Q%24 h, the percentage” below) [1] was 7.408 ± 0.648%, the “Cumulative Permeation Mass” value [1, 13] was 32.001 ± 3.167 ^a µg·cm^−2 and the “Cumulative Permeation Mass” value [1, 14] was 32.001 ± 2.801 ^a µg IBU·cm^−2. For the same compound, the “LT, lag time” value [1] was 1.399 ± 0.145 h, the Papp ([1]; pig, pH 7.4) was 1.94 ×10⁻⁶ cm/s and the “EF, enhancement factor” value [1] was 1.00. For the same compound, the “JSS, steady-state flux” value [1] was 3.017 ± 0.209 µg IBU cm^−2 h^−1, the “JSS, steady-state flux” value ([1]; listed as ibuprofen) was 3.017 µg IBU cm^−2 h^−1 and the logP at 3 h ([2]; n-octanol/water) was 3.208 ± 0.002. For the same compound, the solubility ([3]; pH 1) was 0.038 mg·cm^−3, the solubility ([3]; pH 4.5) was 0.084 mg·cm^−3 and the solubility ([3]; pH 5.5) was 0.685 mg·cm^−3. For the same compound, the solubility ([3]; pH 6.8) was 3.37 mg·cm^−3, the “log P” value [4] was 2.41–4.00 and the “Tonset, the onset temperature of the thermal degradation” value (from here on “Tonset, the onset temperature”) ([5]; TG) was 189.8 °C.
With `CC(C)Cc1ccc(C(C)C(=O)O)cc1.CC(C)OC(=O)C[C@H](N)C(=O)OC(C)C` [[L-Asp(OiPr)2][IBU], L-aspartic acid isopropyl ester ibuprofenate] the “Solubility in DMSO” value [6] was “+ (soluble >100 mg cm^−3)”, the Solubility in chloroform [6] was “+ (soluble >100 mg cm^−3)” and the Solubility in dichloromethane [6] was “+ (soluble >100 mg cm^−3)”. For the same compound, the “Solubility in diethyl ether” value [6] was “+/− (partially soluble 33–100 mg cm^−3)”, the Solubility in ethanol [6] was “+ (soluble >100 mg cm^−3)” and the “Solubility in ethyl acetate” value [6] was “+ (soluble >100 mg cm^−3)”. The Solubility in n-hexane [6] was “− (insoluble <33 mg cm^−3)”, the Solubility in toluene [6] was “+ (soluble >100 mg cm^−3)” and the “Solubility in Phosphate Buffer pH = 7.4” value ([7]; g of active compound (IBU)) was 1.449 ± 0.009 g IBU∙dm^−3. For the same compound, the “Solubility in Phosphate Buffer pH = 7.4” value ([7]; g of compound) was 2.976 ± 0.018 g∙dm^−3, the “Solubility in Water” value ([7]; g of active compound (IBU)) was 1.159 ± 0.001 g IBU∙dm^−3 and the “Solubility in Water” value ([7]; g of compound) was 2.380 ± 0.003 g∙dm^−3. The “Accumulation in the skin” value [8] was 406.961 ± 17.799 µg IBU g^−1, the “Q%24 h, the percentage” value [1] was 27.307 ± 2.851% and the “Cumulative Permeation Mass” value [1, 13] was 812.658 ± 12.545 ^b µg·cm^−2. For the same compound, the “Cumulative Permeation Mass” value [1, 14] was 395.800 ± 41.320 ^b µg IBU·cm^−2, the “LT, lag time” value [1] was 1.010 ± 0.054 h and the “EF, enhancement factor” value [1] was 3.69. For the same compound, the “JSS, steady-state flux” value [1] was 55.063 ± 1.425 µg IBU cm^−2 h^−1, the “Log P (n-octanol-water partition coefficient)” value [2] was 1.506 ± 0.001 and the “Tonset, the onset temperature” value [5] was 141.7 °C.
With `CC(C)Cc1ccc(C(C)C(=O)O)cc1.CC[C@H](C)[C@H](N)C(=O)OC(C)C` [[L-IleOiPr][IBU], L-isoleucine isopropyl ester ibuprofenate] the “Solubility in DMSO” value [6] was “+ (soluble >100 mg cm^−3)”, the Solubility in chloroform [6] was “+ (soluble >100 mg cm^−3)” and the Solubility in dichloromethane [6] was “+ (soluble >100 mg cm^−3)”. The “Solubility in diethyl ether” value [6] was “+/− (partially soluble 33–100 mg cm^−3)”, the Solubility in ethanol [6] was “+ (soluble >100 mg cm^−3)” and the “Solubility in ethyl acetate” value [6] was “+ (soluble >100 mg cm^−3)”. For the same compound, the Solubility in n-hexane [6] was “− (insoluble <33 mg cm^−3)”, the Solubility in toluene [6] was “+ (soluble >100 mg cm^−3)” and the “Solubility in Phosphate Buffer pH = 7.4” value ([7]; g of active compound (IBU)) was 2.562 ± 0.010 g IBU∙dm^−3. For the same compound, the “Solubility in Phosphate Buffer pH = 7.4” value ([7]; g of compound) was 4.713 ± 0.018 g∙dm^−3, the “Solubility in Water” value ([7]; g of active compound (IBU)) was 1.483 ± 0.098 g IBU∙dm^−3 and the “Solubility in Water” value ([7]; g of compound) was 2.729 ± 0.180 g∙dm^−3. For the same compound, the “Accumulation in the skin” value [8] was 646.293 ± 123.070 µg IBU g^−1, the “Q%24 h, the percentage” value [1] was 2.318 ± 0.118% and the “Cumulative Permeation Mass” value [1, 13] was 173.888 ± 8.815 ^b µg·cm^−2. For the same compound, the “Cumulative Permeation Mass” value [1, 14] was 94.512 ± 4.791 ^b µg IBU·cm^−2, the “LT, lag time” value [1] was 1.617 ± 0.057 h and the “EF, enhancement factor” value [1] was 0.31. For the same compound, the “JSS, steady-state flux” value [1] was 9.545 µg IBU cm^−2 h^−1 and 9.545 ± 0.239 µg IBU cm^−2 h^−1, the “Log P (n-octanol-water partition coefficient)” value [2] was 1.652 ± 0.008 and the “Tonset, the onset temperature” value [5] was 105.2 °C.
With `CC(C)Cc1ccc(C(C)C(=O)O)cc1.CSCC[C@H](N)C(=O)OC(C)C` [[L-MetOiPr][IBU], L-methionine isopropyl ester ibuprofenate] the “JSS, steady-state flux” value [9] was 25.312 ± 0.661 µg IBU cm^−2 h^−1 and the “Tonset, the onset temperature” value [5] was 146.2 °C.
In the case of `CC(C)Cc1ccc(C(C)C(=O)O)cc1.CC(C)OC(=O)[C@@H](N)CO` [[L-SerOiPr][IBU], L-serine isopropyl ester ibuprofenate], the “Solubility in ethyl acetate” value [6] is reported as “+/− (partially soluble 33–100 mg cm^−3)”, the Solubility in toluene [6] is reported as “− (insoluble <33 mg cm^−3)” and the “Accumulation in the skin” value [8] is reported as 407.652 ± 74.170 µg IBU g^−1. For the same compound, the “Q%24 h, the percentage” value [1] was 11.035 ± 0.500%, the “LT, lag time” value [1] was 1.160 ± 0.081 h and the “EF, enhancement factor” value [1] was 1.49. The “JSS, steady-state flux” value [1] was 66.106 µg IBU cm^−2 h^−1 and 66.106 ± 2.925 µg IBU cm^−2 h^−1, the “Log P (n-octanol-water partition coefficient)” value [2] was 0.775 ± 0.008 and the “Tonset, the onset temperature” value ([5]; TG) was 139.2 °C.
With `CC(C)Cc1ccc(C(C)C(=O)O)cc1.CC(C)OC(=O)[C@@H](N)[C@@H](C)O` [[L-ThrOiPr][IBU], L-threonine isopropyl ester ibuprofenate] the “Accumulation in the skin” value [8] was 621.866 ± 112.163 µg IBU g^−1, the “Q%24 h, the percentage” value [1] was 11.294 ± 0.505% and the “Cumulative Permeation Mass” value [1, 13] was 714.248 ± 38.838 ^b µg·cm^−2. The “Cumulative Permeation Mass” value [1, 14] was 400.942 ± 17.921 ^b µg IBU·cm^−2, the “LT, lag time” value [1] was 1.339 ± 0.177 h and the “EF, enhancement factor” value [1] was 1.52. For the same compound, the “JSS, steady-state flux” value [1] was 59.631 ± 6.900 µg IBU cm^−2 h^−1, the “Log P (n-octanol-water partition coefficient)” value [2] was 0.998 ± 0.001 and the “Tonset, the onset temperature” value [5] was 129.6 °C.
For `CC(C)Cc1ccc(C(C)C(=O)O)cc1.CC(C)OC(=O)[C@@H](N)C(C)C` [[L-ValOiPr][IBU], L-valine isopropyl ester ibuprofenate], the “Solubility in Phosphate Buffer pH = 7.4” value ([10]; g of active compound (IBU)) is listed as 2.821 ± 0.018 [31] g IBU∙dm^−3, the “Solubility in Phosphate Buffer pH = 7.4” value ([10]; g of compound) is listed as 4.998 ± 0.018 [31] g∙dm^−3 and the “Solubility in Water” value ([10]; g of active compound (IBU)) is listed as 1.957 ± 0.007 [31] g IBU∙dm^−3. The “Solubility in Water” value ([10]; g of compound) was 3.468 ± 0.007 [31] g∙dm^−3, the “Q%24 h, the percentage” value [1] was 13.698 ± 1.123% and the “Cumulative Permeation Mass” value [1, 13] was 684.642 ± 56.109 ^b µg·cm^−2. For the same compound, the “Cumulative Permeation Mass” value [1, 14] was 386.391 ± 31.666 ^b µg IBU·cm^−2, the “EF, enhancement factor” value [1] was 1.85 and the “JSS, steady-state flux” value [1] was 43.749 ± 2.445 µg IBU cm^−2 h^−1. For the same compound, the “Log P (n-octanol-water partition coefficient)” value [11] was 1.154 ± 0.004 [31], the “Solubility in DMSO” value [12] was “+ [31] (soluble >100 mg cm^−3)” and the Solubility in chloroform [12] was “+ [31] (soluble >100 mg cm^−3)”. For the same compound, the Solubility in dichloromethane [12] was “+ [31] (soluble >100 mg cm^−3)”, the “Solubility in diethyl ether” value [12] was “+/− [31] (partially soluble 33–100 mg cm^−3)” and the Solubility in ethanol [12] was “+ [31] (soluble >100 mg cm^−3)”. For the same compound, the “Solubility in ethyl acetate” value [12] was “+/− [31] (partially soluble 33–100 mg cm^−3)”, the Solubility in n-hexane [12] was “− [31] (insoluble <33 mg cm^−3)” and the Solubility in toluene [12] was “+ [31] (soluble >100 mg cm^−3)”.
